# “Also recorded” adds a separate entry of the source.
# Tests used:
# ERRβ = biological target: T1, ERRβ (Homo sapiens, UniProt O95718); conditions: cited from earlier work
# T1 sequence (O95718 1-433): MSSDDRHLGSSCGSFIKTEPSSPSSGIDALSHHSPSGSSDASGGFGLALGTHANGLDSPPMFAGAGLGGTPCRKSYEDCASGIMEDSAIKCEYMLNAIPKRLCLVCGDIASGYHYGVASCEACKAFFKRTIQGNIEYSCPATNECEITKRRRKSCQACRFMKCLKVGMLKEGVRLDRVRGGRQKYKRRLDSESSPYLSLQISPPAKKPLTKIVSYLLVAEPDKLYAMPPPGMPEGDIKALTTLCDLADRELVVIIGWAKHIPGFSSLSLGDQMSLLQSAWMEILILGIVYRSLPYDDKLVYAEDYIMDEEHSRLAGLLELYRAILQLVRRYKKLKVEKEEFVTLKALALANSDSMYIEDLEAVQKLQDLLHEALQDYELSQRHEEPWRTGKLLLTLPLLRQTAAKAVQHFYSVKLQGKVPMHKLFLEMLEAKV
# ERRγ = biological target: T2, ERRγ (Homo sapiens, UniProt P62508); conditions: cited from earlier work
# T2 sequence (P62508 1-458): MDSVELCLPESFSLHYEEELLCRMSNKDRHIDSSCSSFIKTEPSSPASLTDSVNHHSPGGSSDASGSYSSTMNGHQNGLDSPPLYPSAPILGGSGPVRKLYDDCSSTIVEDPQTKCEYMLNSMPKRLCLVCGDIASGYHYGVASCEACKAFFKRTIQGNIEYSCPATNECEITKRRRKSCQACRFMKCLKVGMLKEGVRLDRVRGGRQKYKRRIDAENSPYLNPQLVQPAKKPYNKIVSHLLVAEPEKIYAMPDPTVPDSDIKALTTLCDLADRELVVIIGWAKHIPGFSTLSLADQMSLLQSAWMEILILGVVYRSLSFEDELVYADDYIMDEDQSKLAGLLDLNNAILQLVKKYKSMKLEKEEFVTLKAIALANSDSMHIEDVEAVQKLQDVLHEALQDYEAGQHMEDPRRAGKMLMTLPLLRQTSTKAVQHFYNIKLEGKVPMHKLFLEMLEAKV
# AMPK = conditions: dose 500 mg/kg/day; cited from earlier work
# [1] = dose 500 mg/kg/day; cited from earlier work
# type II muscle = assay: AICAR treatment of mice, SDH staining of muscle cryo-sections; type: in vivo; conditions: AICAR 500 mg/kg/day for 4 weeks, intra-peritoneally, male C57Bl/6J mice
# Method: Drug treatment. Male C57Bl/6J mice (8 weeks old) were intra-peritoneally injected with vehicle or AICAR (500 mg/kg/day), as previously described (Narkar et al., 2008).
# Succinate Dehydrogenase (SDH) Staining. SDH staining was performed on […] cryo-sections of gastrocnemius. Briefly, WT and transgenic sections were incubated at 37° C. for 10 min in substrate buffer [0.2M Phosphate buffer containing sodium succinate (250 mg/10 ml) and NBT (10 mg/10 ml)]. Following incubation, sections were washed three times with water following by two washes each with increasing and decreasing concentrations of acetone (30%, 60%, 90%). Finally, the sections were washed three times with water and mounted in an aqueous mounting media.
smiles,measurement,setting,value
CC(C)c1ccc(/C=N/NC(=O)c2ccc(O)cc2)cc1 [GSK4716],agonist of ERRβ,ERRβ,agonists
"CCN(CC)c1ccc(C=NNC(=O)c2ccc(O)cc2)cc1 (stereo in doubt) [GSK9089, N-[(E)-[4-(diethylamino)phenyl]methylideneamino]-4-hydroxybenzamide]",agonist of ERRβ,ERRβ,agonists
same,agonist of ERRγ,ERRγ,agonists
Nc1ccc(C(=O)N/N=C/c2ccc(/N=N/c3ccccc3)cc2)cn1 [E6],selectivity for ERRγ over ERRα and β,ERRγ; screening assay of Kim et al. 2009,selective for ERRγ but not ERRα and β
NC(=O)c1ncn([C@@H]2O[C@H](CO)[C@@H](O)[C@H]2O)c1N [AICAR],stimulation of AMPK in anaerobic muscle,AMPK,stimulate AMPK in anaerobic muscle
same,aerobic performance,[1],improve aerobic performance
same,aerobic transformation of skeletal muscle (SDH staining),type II muscle,able to direct aspects of skeletal muscle transformation in a fashion similar to ERRγ; also recorded: triggers aerobic transformation of type II muscle
